Experiments:
Assay type in all cases: functional, cell-based
A549 = assay: Cytotoxicity against human A549 cells after 24 hrs by MTT assay; settings: A549, 24 h
U-266 = assay: Cytotoxicity against human U266 cells after 24 hrs by MTT assay; settings: U-266, 24 h
[1] = Cytotoxicity against human Bel7404 cells after 24 hrs by MTT assay; settings: BEL-7404, 24 h
SGC-7901 = assay: Cytotoxicity against human SGC7901 cells after 24 hrs by MTT assay; settings: SGC-7901, 24 h
HepG2 = assay: Cytotoxicity against human HepG2 cells after 24 hrs by MTT assay; settings: HepG2, 24 h
HL-60 = assay: Cytotoxicity against human HL60 cells after 24 hrs by MTT assay; settings: HL-60, 24 h

Row | Compound | IC50 (A549) [µM] | IC50 (U-266) [µM] | IC50 [1] [µM] | IC50 (SGC-7901) [µM] | IC50 (HepG2) [µM] | IC50 (HL-60) [µM]
1 | CC1(C)C[C@@H]2[C@]3(CO[C@@]24CC[C@@H]2[C@@]5(C)CC[C@H](O)[C@@](C)(CO)[C@@H]5CC[C@@]2(C)[C@]4(C)CC3=O)[C@@H](O)C1 | > 100 | > 100 | > 100 | > 100 | > 100 | > 100
2 | CC1(C)C[C@@H]2[C@]3(CO[C@@]24CC[C@@H]2[C@@]5(C)CCC(=O)[C@@](C)(CO)[C@@H]5CC[C@@]2(C)[C@]4(C)CC3=O)[C@@H](O)C1 | > 100 | > 100 | > 100 | > 100 | > 100 | > 100
3 | CC(=O)O[C@H]1CC(C)(C)C[C@@H]2[C@]13CO[C@@]21CC[C@@H]2[C@@]4(C)CC[C@H](O[C@@H]5OC[C@H](O[C@@H]6O[C@H](CO)[C@@H](O)[C@H](O)[C@H]6O)[C@H](O)[C@H]5O[C@@H]5O[C@H](CO)[C@@H](O)[C@H](O)[C@H]5O[C@@H]5OC[C@@H](O)[C@H](O)[C@H]5O)C(C)(C)[C@@H]4CC[C@@]2(C)[C@]1(C)C[C@H]3O | 5.28 | 8.83 | 5.88 | 7.69 | 4.92 | 6.8
4 | CC1(C)CC[C@]23CO[C@@]4(CC[C@@H]5[C@@]6(C)CC[C@H](O[C@@H]7OC[C@H](O)[C@H](O)[C@H]7O)[C@@](C)(CO)[C@@H]6CC[C@@]5(C)[C@]4(C)CC2=O)[C@@H]3C1 [ANAGALLIGENONE-3-O-ALPHA-L-ARABINOPYRANOSIDE] | 85.3 | 94.8 | 75.5 | > 100 | 55.4 | > 100
5 | CC1(C)CC[C@]23CO[C@@]4(CC[C@@H]5[C@@]6(C)CC[C@H](O[C@@H]7OC[C@H](O[C@@H]8O[C@H](CO)[C@@H](O)[C@H](O)[C@H]8O)[C@H](O)[C@H]7O)[C@@](C)(CO)[C@@H]6CC[C@@]5(C)[C@]4(C)CC2=O)[C@@H]3C1 [ANAGALLIGENONE-3-O-[BETA-D-GLUCOPYRANOSYL(1->4)-ALPHA-L-ARABINOPYRANOSIDE] | 14.6 | 13.9 | 17.3 | 19 | 16.2 | 16.3
6 | CC1(C)CC[C@]23CO[C@@]4(CC[C@@H]5[C@@]6(C)CC[C@H](O[C@@H]7OC[C@H](O[C@@H]8O[C@H](CO)[C@@H](O)[C@H](O)[C@H]8O[C@@H]8OC[C@@H](O)[C@H](O)[C@H]8O)[C@H](O)[C@H]7O)[C@@](C)(CO)[C@@H]6CC[C@@]5(C)[C@]4(C)CC2=O)[C@@H]3C1 [ANAGALLIGENONE-3-O-[BETA-D-XYLOPYRANOSYL(1->2)-BETA-D-GLUCOPYRANOSYL(1->4)-ALPHA-L-ARABINOPYRANOSIDE]] | 10.9 | 10.4 | 9.14 | 9.24 | 8.87 | 10.3

Source: ChEMBL document CHEMBL2417448, “Cytotoxic triterpenoids from Lysimachia parvifolia” (Eur J Med Chem, 2013)
